Source: US20130059890A1, “ANTIVIRAL AGENTS” (SYDNEY WEST AREA HEALTH SERVICE, priority 2009, published 2013)
“Also recorded” adds a separate entry of the source.

System: HCV (JFH-1) infected Huh7 cells
Conditions: 24 hours; for effect on HCV replication (in words): HCV RNA by qPCR (FIG. 9; discussion)
From the text: Huh7 cells were infected with the JFH-1 strain of hepatitis C virus (genotype 2a) as previously described in Wakita et al., (2005), “Production of infectious hepatitis C virus in tissue culture from a cloned viral genome”, Nat. Med., 11(7):791-796). Briefly, pJFH-1 plasmids encoding full length HCV genome (provided by T. Wakita, National Institute of Infectious Diseases, Japan) were linearized and HCV RNA was synthesized using T7 RiboMAX™ Express Large Scale RNA Production System (Promega). 10 μg of HCV RNA was added to 1.6×10^6 Huh7 cells suspended in 800 ul PBS buffer. A Bio-Rad Gene Pulser system was used to deliver a single pulse at 0.34 kV, 975 μF, using 4 mm electroporation cuvettes. Cells were cultured at 37° C. in a 5% CO2 atmosphere in Dulbecco's modified Eagle's medium (DMEM) supplemented with 10% fetal bovine serum for 10 days (Gibco).
HCV RNA was amplified from infected Huh7 cells using specific primers targeting the 5′ noncoding region under the following conditions: 10 min at 95° C.; 40 cycles of 94° C. for 15 s and 60° C. for 45 s. Samples were analysed in triplicate and relative expression of HCV RNA normalised to 18s.
JFH-1 infected Huh7 cells cultured in 6 well plates were treated with HU-210 (100 nM), either alone or with increasing concentrations of the antagonists NlDA-41020 or (S)-SLV-319 (1 nM, 10 nM, 100 nM and 1 μM). Untreated cells and cells treated with CB1 antagonist alone (100 nM) were used as controls. After 24 hours cells were harvested, total RNA extracted, and HCV RNA measured by qPCR. Three replicate experiments were performed for each set of conditions and mean values calculated.

In the case of `CN=C(NS(=O)(=O)c1ccc(Cl)cc1)N1C[C@H](c2ccccc2)C(c2ccc(Cl)cc2)=N1` [(S)-SLV-319, 3-(4-chlorophenyl)-N-[(4-chlorophenyl)sulfonyl]-4,5-dihydro-N′-methyl-4-phenyl-1H-pyrazole-1-carboximidamide], the “effect on HCV replication (in words)” value is reported as “inhibit HCV replication in a dose-dependent manner; also recorded: inhibited”.
For `CCCCCCC(C)(C)c1cc(O)c2c(c1)OC(C)(C)[C@@H]1CC=C(CO)C[C@@H]21` [HU-210], the “effect on HCV replication (in words)” value was “stimulated” and the “increase of HCV replication” value (HU-210 100 nM, HCV RNA by qPCR normalised to 18s (FIG. 7)) was 40%.
